For the experiment, the system named is dog barking and jumping. Description: Teaser dog kennel test of dog barking and jumping. Type of experiment: in vivo. Particulars: kennel dogs with teaser dog; for effectiveness in reducing barking and jumping (Quinoline compared to Androstenone): Study 3. On the procedure:
The efficacy of Quinoline was tested in three studies conducted to determine if Quinoline would reduce dog barking and jumping. The composition used in the experiments comprised approximately 4 micrograms per milliliter of Quinoline.
The basic parameters of the test involved walking a teaser dog in the center aisle of a dog kennel with test dogs on either side in kennels. The kennels were chain-linked fence with concrete floors. The researchers walked a teaser dog down the aisle and recorded dogs jumping and barking over a two minute period.
In the first study, three treatments were evaluated. Treatment 1 represented no treatment of any kind. The teaser animal simply stood at the test subjects' kennel.
Treatment 2 represented a control treatment. In this case, the delivery vehicle (isopropyl alcohol) spray was administered without Quinoline.
In treatment 3, Quinoline was administered to the test subject animals.
In study 2, the efficacy of Quinoline alone was tested. Test 2 was conducted a week after test 1. The same procedure was used in study 2 except that the test animals were only subject to the delivery of Quinoline.
In study 3, Quinoline was compared to Androstenone (the compound described in U.S. Pat. No. 9,044,395). Again, the same procedures were used in study 3; the test animals were subject to Quinoline and Androstenone.

Where [1] appears, read: Study 1, treatment 3, Quinoline approximately 4 micrograms per milliliter, spray.
[2] abbreviates: Study 2, Quinoline alone, a week after study 1.

Turning to `C[C@]12CCC(=O)C[C@@H]1CC[C@@H]1[C@@H]2CC[C@]2(C)C=CC[C@@H]12` [Androstenone, reference compound], the “effectiveness in reducing barking and jumping (Quinoline compared to Androstenone)” value is listed as “approximately equivalently effective”.
In the case of `c1ccc2ncccc2c1` [Quinoline], the “effectiveness in reducing barking and jumping (Quinoline compared to Androstenone)” value was “approximately equivalently effective”. Under setting [1], this molecule had a reduced barking of 80% and a reduced jumping of 90%. Under setting [2], this molecule registered a reduced barking of 100% and a reduced jumping of 90%.

Source of the values: patent publication US11617715B2, “Methods and compositions for modifying the behavior of animals” (Texas Tech University System, priority 2016, dated 2023).
